Test [1] addresses T1, Dual specificity protein phosphatase 3 (Homo sapiens, UniProt P51452). The test can be described thus: VHR1 phosphatase inhibitors, primary screen, biochemical, absorbance, uHTS (AID 1654).
In test [2] the target is T1, Dual specificity protein phosphatase 3. Nature of the test: VHR1 phosphatase inhibitors, biochemical (AID 1878).
In test [3] the target is Dual specificity protein phosphatase 6 (Rattus norvegicus, UniProt Q64346). The test can be described thus: inhibition of rat DUSP6 enzyme activity – biochemical, in vitro, primary screen (AID 425).
Chain of Dual specificity protein phosphatase 6 (Q64346 whole entry): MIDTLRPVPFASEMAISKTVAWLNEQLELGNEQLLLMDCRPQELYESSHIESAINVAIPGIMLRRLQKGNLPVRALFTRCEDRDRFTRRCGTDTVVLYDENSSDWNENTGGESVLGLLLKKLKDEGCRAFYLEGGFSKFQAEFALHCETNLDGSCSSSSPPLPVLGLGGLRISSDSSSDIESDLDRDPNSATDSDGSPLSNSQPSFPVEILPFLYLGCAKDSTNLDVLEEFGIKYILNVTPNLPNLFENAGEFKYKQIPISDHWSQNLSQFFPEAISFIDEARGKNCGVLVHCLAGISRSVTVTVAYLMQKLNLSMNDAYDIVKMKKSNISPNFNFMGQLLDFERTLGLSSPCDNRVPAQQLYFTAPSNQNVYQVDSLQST
The next test addresses Cytochrome P450 2C9 (Homo sapiens, UniProt P11712).
Test [4] deals with T2, Mu-type opioid receptor (Homo sapiens, UniProt P35372). The test can be described thus: SAR Analysis of Antagonists of the MOR Receptor using an Image-Based Assay - Set 2. [Related pubchem assays (depositor defined):AID1777, AID1785, AID1786, AID1966, AID2133, AID2136, AID2284, AID2285, AID2420]. Format: functional.
T2 sequence (P35372 whole entry): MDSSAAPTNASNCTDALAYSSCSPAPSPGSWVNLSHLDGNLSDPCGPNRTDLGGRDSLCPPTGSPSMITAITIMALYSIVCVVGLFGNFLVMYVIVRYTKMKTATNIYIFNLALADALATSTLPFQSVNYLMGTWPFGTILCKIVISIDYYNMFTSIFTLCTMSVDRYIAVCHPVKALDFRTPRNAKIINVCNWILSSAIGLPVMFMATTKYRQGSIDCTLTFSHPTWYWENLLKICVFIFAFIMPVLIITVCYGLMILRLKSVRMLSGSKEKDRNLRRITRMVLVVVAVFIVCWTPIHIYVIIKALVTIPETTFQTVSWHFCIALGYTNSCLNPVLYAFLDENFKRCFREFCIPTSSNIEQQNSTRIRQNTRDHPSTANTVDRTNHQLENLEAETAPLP
The target in test [5] is T3, Kappa-type opioid receptor (Homo sapiens, UniProt P41145). Nature of the test: SAR analysis of Antagonists of the Kappa Opioid Receptor (KOR) using an Image-Based Assay - Set 2. [Related pubchem assays (depositor defined):AID1777, AID1785, AID1786, AID1966, AID2133, AID2136, AID2284, AID2285, AID2348]. The class given is functional.
T3 sequence (P41145 whole entry): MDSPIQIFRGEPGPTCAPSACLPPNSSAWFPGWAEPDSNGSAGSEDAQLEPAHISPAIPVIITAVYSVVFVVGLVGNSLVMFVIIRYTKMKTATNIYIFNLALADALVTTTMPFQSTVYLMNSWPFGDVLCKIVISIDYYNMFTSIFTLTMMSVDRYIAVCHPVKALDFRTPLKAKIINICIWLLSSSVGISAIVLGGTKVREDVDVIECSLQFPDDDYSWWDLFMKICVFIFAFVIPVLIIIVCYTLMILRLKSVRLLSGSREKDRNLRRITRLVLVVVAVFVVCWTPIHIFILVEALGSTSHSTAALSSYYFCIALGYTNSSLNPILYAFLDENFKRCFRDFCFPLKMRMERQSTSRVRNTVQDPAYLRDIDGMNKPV
Test [6] has as its target T2, Mu-type opioid receptor. The test can be described thus: SAR Analysis of Agonists of the MOR Receptor using an Image-Based Assay - Set 2. [Related pubchem assays (depositor defined):AID1777, AID1785, AID1786, AID1966, AID2133, AID2136, AID2284, AID2285, AID2352]. The class given is functional.
Test [7] has as its target T3, Kappa-type opioid receptor. Nature of the test: SAR analysis of small molecule agonists of the kappa opioid receptor via a luminescent beta-arrestin assay - Set 2. [Related pubchem assays (depositor defined):AID1777, AID1785, AID1786, AID1966, AID2133, AID2136, AID2284, AID449737]. The class given is functional.
In test [8] the target is T4, Delta-type opioid receptor (Homo sapiens, UniProt P41143). The test can be described thus: SAR Analysis of Agonists of the DOR Receptor using an Image-Based Assay - Set 2. [Related pubchem assays (depositor defined):AID1777, AID1785, AID1786, AID1966, AID2133, AID2136, AID2284, AID2285, AID2370]. Format: functional.
T4 sequence (P41143 whole entry): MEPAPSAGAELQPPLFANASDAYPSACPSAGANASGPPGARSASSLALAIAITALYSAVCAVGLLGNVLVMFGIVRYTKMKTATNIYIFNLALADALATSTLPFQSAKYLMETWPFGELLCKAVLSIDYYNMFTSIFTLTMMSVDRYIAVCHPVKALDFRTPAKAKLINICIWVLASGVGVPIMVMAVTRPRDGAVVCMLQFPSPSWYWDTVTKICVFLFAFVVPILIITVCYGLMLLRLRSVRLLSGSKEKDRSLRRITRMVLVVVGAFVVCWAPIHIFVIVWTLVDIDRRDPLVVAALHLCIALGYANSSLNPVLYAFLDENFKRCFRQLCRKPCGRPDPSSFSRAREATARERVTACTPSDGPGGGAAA
In test [9] the target is T4, Delta-type opioid receptor. Nature of the test: SAR Analysis of Antagonists of the DOR Receptor using an Image-Based Assay - Set 2. [Related pubchem assays (depositor defined):AID1777, AID1785, AID1786, AID1966, AID2133, AID2136, AID2284, AID2285, AID2357]. The class given is functional.
Test [10] deals with T3, Kappa-type opioid receptor. The test can be described thus: SAR analysis of Agonists of the Kappa Opioid Receptor (KOR) using an Image-Based Assay - Set 2. [Related pubchem assays (depositor defined):AID1777, AID1786, AID1966, AID2133, AID2136, AID2284, AID2285, AID2359]. Format: functional.
The target in test [11] is Voltage-dependent T-type calcium channel subunit alpha-1H (Homo sapiens, UniProt O95180). The test can be described thus: inhibition of CACNA1H calcium flux – cell-based, SynthLib3 library, HEK293 Cav3.2, fluorescence (AID 493041). The class given is functional. Background: A change in cytosolic calcium serves as a functional read-out for many receptors and channels.
Chain of Voltage-dependent T-type calcium channel subunit alpha-1H (O95180 whole entry): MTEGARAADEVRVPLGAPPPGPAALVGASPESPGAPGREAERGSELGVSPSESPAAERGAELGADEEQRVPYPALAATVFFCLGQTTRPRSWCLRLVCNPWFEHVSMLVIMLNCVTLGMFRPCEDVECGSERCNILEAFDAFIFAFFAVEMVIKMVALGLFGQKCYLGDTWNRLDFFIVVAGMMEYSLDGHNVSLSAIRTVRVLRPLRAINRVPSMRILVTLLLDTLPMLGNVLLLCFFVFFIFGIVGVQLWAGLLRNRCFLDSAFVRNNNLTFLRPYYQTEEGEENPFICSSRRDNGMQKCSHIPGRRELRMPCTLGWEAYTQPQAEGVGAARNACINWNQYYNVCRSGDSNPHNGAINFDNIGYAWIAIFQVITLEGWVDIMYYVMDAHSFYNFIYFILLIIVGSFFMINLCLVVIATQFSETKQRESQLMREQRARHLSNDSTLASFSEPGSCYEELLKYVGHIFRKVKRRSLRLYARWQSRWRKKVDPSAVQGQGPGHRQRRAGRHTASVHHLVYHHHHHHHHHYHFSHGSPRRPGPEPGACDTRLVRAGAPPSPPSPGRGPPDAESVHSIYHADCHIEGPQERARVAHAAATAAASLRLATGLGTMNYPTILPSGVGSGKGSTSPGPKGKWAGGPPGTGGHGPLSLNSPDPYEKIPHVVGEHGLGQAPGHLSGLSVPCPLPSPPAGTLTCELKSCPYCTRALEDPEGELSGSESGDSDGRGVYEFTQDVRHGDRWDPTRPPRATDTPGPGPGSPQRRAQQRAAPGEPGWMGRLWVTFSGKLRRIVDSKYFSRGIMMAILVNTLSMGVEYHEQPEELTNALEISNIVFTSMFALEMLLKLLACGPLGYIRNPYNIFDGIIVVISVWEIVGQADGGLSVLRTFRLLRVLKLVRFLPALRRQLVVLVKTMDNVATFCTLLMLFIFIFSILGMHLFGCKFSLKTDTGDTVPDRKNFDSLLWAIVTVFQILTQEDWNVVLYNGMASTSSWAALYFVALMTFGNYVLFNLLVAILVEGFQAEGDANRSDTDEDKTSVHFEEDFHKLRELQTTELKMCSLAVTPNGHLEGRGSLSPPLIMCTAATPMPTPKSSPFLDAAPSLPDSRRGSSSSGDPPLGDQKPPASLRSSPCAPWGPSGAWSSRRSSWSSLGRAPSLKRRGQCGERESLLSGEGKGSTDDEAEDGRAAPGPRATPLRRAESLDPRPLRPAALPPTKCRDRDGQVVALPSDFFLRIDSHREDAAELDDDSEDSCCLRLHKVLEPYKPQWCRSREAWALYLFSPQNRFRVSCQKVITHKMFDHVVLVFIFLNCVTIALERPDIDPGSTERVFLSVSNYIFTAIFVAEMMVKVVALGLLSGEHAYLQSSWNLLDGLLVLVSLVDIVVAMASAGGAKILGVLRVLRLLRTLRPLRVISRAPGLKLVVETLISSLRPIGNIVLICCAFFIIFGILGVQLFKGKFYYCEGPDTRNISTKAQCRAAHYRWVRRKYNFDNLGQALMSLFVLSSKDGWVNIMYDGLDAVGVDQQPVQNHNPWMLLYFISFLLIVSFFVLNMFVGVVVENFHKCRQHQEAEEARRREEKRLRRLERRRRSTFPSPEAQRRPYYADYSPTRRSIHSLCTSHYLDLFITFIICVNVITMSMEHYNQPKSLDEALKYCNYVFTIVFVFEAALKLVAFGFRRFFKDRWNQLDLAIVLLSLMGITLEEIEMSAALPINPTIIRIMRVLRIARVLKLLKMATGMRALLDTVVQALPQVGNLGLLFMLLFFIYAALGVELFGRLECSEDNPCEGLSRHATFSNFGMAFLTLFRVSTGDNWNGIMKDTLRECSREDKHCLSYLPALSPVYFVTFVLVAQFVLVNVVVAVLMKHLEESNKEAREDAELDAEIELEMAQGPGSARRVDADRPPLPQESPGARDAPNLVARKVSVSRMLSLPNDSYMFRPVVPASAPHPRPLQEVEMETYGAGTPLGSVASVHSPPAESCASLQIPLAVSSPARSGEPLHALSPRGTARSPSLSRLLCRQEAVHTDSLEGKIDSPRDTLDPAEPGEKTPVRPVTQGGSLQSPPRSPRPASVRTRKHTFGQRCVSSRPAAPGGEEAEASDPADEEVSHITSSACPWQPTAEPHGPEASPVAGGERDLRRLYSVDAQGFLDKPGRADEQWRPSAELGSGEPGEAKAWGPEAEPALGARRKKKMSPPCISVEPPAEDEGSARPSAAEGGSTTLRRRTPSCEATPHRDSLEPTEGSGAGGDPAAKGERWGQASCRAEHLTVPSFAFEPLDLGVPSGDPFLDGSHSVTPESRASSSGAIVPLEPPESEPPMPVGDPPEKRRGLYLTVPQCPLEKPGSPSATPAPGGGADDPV

Active and inactive are the calls of the source. Unless noted, the calls are words filed in the database; no cut-off is given here. A value given as a limit tells only on which side of the number the result lay.

The text below walks through data of ChEMBL document CHEMBL1201862, “PubChem BioAssay data set” (2004).

T1 sequence (P51452 whole entry): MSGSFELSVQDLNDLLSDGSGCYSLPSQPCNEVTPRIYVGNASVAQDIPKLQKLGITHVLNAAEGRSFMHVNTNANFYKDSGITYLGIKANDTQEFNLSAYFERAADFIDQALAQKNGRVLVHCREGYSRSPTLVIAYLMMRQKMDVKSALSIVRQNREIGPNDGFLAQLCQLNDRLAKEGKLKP
Chain of Cytochrome P450 2C9 (P11712 whole entry): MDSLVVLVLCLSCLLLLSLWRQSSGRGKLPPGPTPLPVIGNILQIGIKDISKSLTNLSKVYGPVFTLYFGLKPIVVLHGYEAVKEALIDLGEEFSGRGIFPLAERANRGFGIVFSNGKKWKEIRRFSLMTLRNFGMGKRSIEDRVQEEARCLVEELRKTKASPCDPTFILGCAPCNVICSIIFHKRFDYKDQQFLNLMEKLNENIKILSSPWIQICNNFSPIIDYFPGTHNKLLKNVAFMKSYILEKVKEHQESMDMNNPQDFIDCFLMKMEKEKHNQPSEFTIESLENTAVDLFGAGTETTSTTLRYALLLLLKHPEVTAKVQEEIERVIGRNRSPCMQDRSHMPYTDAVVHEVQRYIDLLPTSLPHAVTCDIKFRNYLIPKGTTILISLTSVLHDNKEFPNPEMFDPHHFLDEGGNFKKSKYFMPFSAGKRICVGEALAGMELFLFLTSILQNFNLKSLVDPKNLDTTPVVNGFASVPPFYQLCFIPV

The term IC50 denotes the midpoint of a concentration-inhibition curve. In general, AC50 refers to the concentration giving half of the maximal activity seen. For `CCC(=S)/C=C1\Sc2ccccc2N1CCCS(=O)(=O)O`, the IC50 in [1] is 4.33 µM (active); in test [2], 8.29 µM (active); in test [3] it was > 158 µM (not active). At Cytochrome P450 2C9, the AC50 was 22.4 µM (inconclusive).
Broadly, the EC50 is the concentration giving half of the maximal effect. As to `c1ccc(CSc2nnc(-c3ccccn3)n2Cc2cccs2)cc1`, the IC50 (at Mu-type opioid receptor [4]; in test [5]; in test [9]) was > 32 µM (inactive) each time. The EC50 on Mu-type opioid receptor [6] was > 32 µM (inactive); in [7], 13.9 µM (inactive); in [8] it was > 32 µM (inactive); in test [10], 23.5 µM (inactive).
For the compound `CC(C)(C)CCN1C[C@@H]2C(CNC(=O)c3cc(Cl)cc(Cl)c3)[C@@H]2C1` (some centres not stated), the half-maximal effective concentration (EC50) in test [11] was 0.17 µM (active).
